# Results: patent US11395867B2, “Degradable removable implant for the sustained release of an active compound” (Janssen Sciences Ireland Unlimited Company, priority 2009, dated 2022)
# Where “and” joins values, the source holds several entries; their conditions need not be identical. Identical values can stand only once.
# What was measured:
# [1] = Solubility experiments of TMC278 in water; assay type: physicochemical
# Source text: The solubility of TMC278 dramatically increases at pH=2. […] The use of an acidic binder gel that can effectively lower pH, can increase the rate of elution of TMC278 from the polymer matrix. Increasing the concentration of the acidic polymer in the gel can depress the pH even further (Table 1).
# [2] = In vivo testing of electrostatically spun tube containing two sets of microparticles, plasma concentrations; parameters: species or system Sprague-Dawley rats; conditions: rat, subcutaneous electrospun tube implant, TMC278 139 mg/kg, compound 1 64 mg/kg, individual animals 1-4
# Protocol: Tubes were electrostatically spun from a 100 mg/ml polydioxanone (IVHFIP=1.99 dl/g) hexafluoroisopropanol solution. A 4 mm mandrel was used to provide a consistent inner diameter of 4 mm. The rotational speed of the mandrel was 400 rpm, the charging voltage range was 20/−10 kV, and the pump flow rate was 10 ml/hour. The resulting wall thickness was 500 microns. Fiber diameters were 1-2 microns and the average pore size formed from the network of fibers was 20 microns as determined by Scanning Electron Microscopy.
# The microparticles were prepared by the spinning disc method using a polymer/acetone solution with a concentration ranging from 3-4% (w/w). Two sets of microparticles were prepared. The target composition of one set was 70% (w/w) TMC278 and 30% (w/w) PLGA 50/50 (Lakeshore Biomaterials IVHFIP=0.79 dl/g). The target composition of the other set of microparticles was 70% (w/w) of compound 1 (=compound 14 of WO01/25240) and 30% (w/w) PLGA 50/50 (Lakeshore Biomaterials IVHFIP=0.18 dl/g). This compound 1 has the following structure and will be referred to hereinafter as compound 1:
# Approximately 133 mg of the microparticle mixture was introduced into the electrostatically prepared tubes using a spatula.
# The prepared tubes were implanted into the subcutaneous space on the back of four male Sprague-Dawley rats weighing between 250-350 grams. The dose of TMC278 was 139 mg/kg and the dose of compound 1 was 64 mg/kg. The tail vein was sampled at pre-determined time points. Blood samples were immediately centrifuged to extract the plasma, plasma was analyzed for compound 1 and TMC278 by LC/MS/MS. The lower limit of quantitation was 0.4 ng/ml and 2 ng/ml for TMC278 and compound 1, respectively.
# [3] = In vivo testing of laser drilled melt extruded tube containing two sets of microparticles, plasma concentrations; conditions: rat, subcutaneous laser drilled extruded tube implant, TMC278 139 mg/kg, compound 1 64 mg/kg, individual animals 1-4
# Protocol: Tubes with inner diameter of 4.5 mm were extruded from polydioxanone (IVHFIP=1.99 dl/g) using a ¾ inch single screw extruder fitted with a tube die. The dimensions of the tube were monitored using an in-line laser diameter measuring system and maintained using a puller. Following the extrusion the tubes were laser drilled. In preparation for the laser drilling a mask design was prepared that located the holes 260 microns apart from one another. Scanning electron microscopy was used to size the inner and outer diameter of the holes. […] The microparticles were prepared as described in Example 9. Approximately 133 mg of the microparticle mixture was introduced into the tubes.
# The prepared tubes were implanted into the subcutaneous space on the back of four male Sprague-Dawley rats weighing between 250-350 grams. The dose of TMC278 was 139 mg/kg and the dose of compound 1 was 64 mg/kg. The tail vein was sampled at pre-determined time points. Blood samples were immediately centrifuged to extract the plasma, and plasma was analyzed for compound 1 and TMC278 by LC/MS/MS. The lower limit of quantitation for TMC278 and compound 1 was 0.4 ng/ml and 2.0 ng/ml, respectively.
# [4] = In vivo testing of laser drilled melt extruded tube containing two sets of microparticles formulated with F108, plasma concentrations; parameters: species or system Sprague-Dawley rats; conditions: rat, subcutaneous laser drilled extruded tube implant, TMC278 109 mg/kg, compound 1 78 mg/kg, individual animals 1-4
# Protocol: The laser drilled melt extruded tube was prepared as described above in example 10. The microparticles were prepared by the spinning disc method using a 3% (w/w) polymer/acetone solution. Two sets of microparticles were prepared. The target composition of one set was 70% (w/w) TMC278, 20% (w/w) PLGA 50/50 (Lakeshore Biomaterials IVHFIP=0.79 dl/g), and 10% (w/w) F108 (BASF). The target composition of the other set of microparticles was 70% (w/w) compound 1, 20% (w/w) PLGA 50/50 (Lakeshore Biomaterials IVHFIP=0.18 dl/g), and 10% (w/w) F108. The F108 was added to the polymer solution.
# The size range of the microparticles was determined by randomly selecting a sample of microparticles and placing them on the stage of an optical microscope and using a ruler to measure the various sizes of the microparticles in the randomly selected sample. The size range of the TMC278 and compound 1 microparticles was 10-100 microns and 20-100 microns, respectively. Microparticles were mixed as described in example 9. Approximately 133 mg of the microparticle mixture was introduced into tubes using a spatula to transfer the contents.
# The prepared tubes were implanted into the subcutaneous space on the back of four male Sprague-Dawley rats weighing between 250-350 grams. The dose of TMC278 and compound 1 was 109 mg/kg and 78 mg/kg, respectively. The tail vein was sampled at pre-determined time points. Blood samples were immediately centrifuged to extract the plasma, plasma was analyzed for compound 1 and TMC278 by LC/MS/MS. The lower limit of quantitation for TMC278 and compound 1 was 0.4 ng/ml and 2 ng/ml, respectively.
# [5] = male, Sprague-Dawley, plasma, subcutaneous, 7 day
# [6] = male, Sprague-Dawley, plasma, subcutaneous, 14 day
structure (smiles),measurement,setting,value
"Cc1cc(/C=C/C#N)cc(C)c1Nc1ccnc(Nc2ccc(C#N)cc2)n1 [TMC278, rilpivirine]",solubility in water at pH of 2 relative to pH of 7,[1]; pH 2 vs pH 7,950 times
same,solubility in water,[1]; water,extreme insolubility
same,plasma concentration,[2]; 3 hour,0.562 ng/mL and 0.462 ng/mL and 0.576 ng/mL
same,plasma concentration,[2]; 1 day,0.441 ng/mL and <0.4 ng/mL and 0.575 ng/mL
same,plasma concentration,[2]; 3 day,0.518 ng/mL and <0.4 ng/mL and 0.549 ng/mL
same,plasma concentration,[2]; 7 day,0.645 ng/ml and <0.4 ng/ml (2×)
same,plasma concentration,[2]; 14 day,<0.4 ng/ml (2×) and 0.424 ng/ml
same,plasma concentration,[2]; 28 day,<0.4 ng/ml (2×) and 0.475 ng/ml
same,plasma concentration,[2]; 35 day,0.527 ng/mL and 0.769 ng/mL and 0.400 ng/mL
same,concentration at 3 h,"[2]; male, Sprague-Dawley, plasma, subcutaneous, 3 hour",0.505 ng/mL
same,concentration at 1 day,"[2]; male, Sprague-Dawley, plasma, subcutaneous, 1 day",< 0.4 ng/mL
same,concentration at 3 day,"[2]; male, Sprague-Dawley, plasma, subcutaneous, 3 day",< 0.4 ng/mL
same,concentration at 7 day,[2]; [5],0.421 ng/mL
same,concentration at 14 day,[2]; [6],< 0.4 ng/mL
same,concentration at 28 day,"[2]; male, Sprague-Dawley, plasma, subcutaneous, 28 day",< 0.4 ng/mL
same,concentration at 35 day,"[2]; male, Sprague-Dawley, plasma, subcutaneous, 35 day",< 0.4 ng/mL
same,plasma concentration,[3]; 3 hour,0.551 ng/mL and 1.42 ng/mL and 2.51 ng/mL and 1.61 ng/mL
same,plasma concentration,[3]; 1 day,<0.4 ng/ml (2×) and 0.432 ng/ml and 1.22 ng/ml
same,plasma concentration,[3]; 3 day,<0.4 ng/ml (3×) and 1.14 ng/ml
same,plasma concentration,[3]; 7 day,0.4 ng/mL and 0.695 ng/mL and <0.4 ng/mL
same,plasma concentration,[3]; 14 day,<0.4 ng/mL and 0.425 ng/mL and 0.456 ng/mL
same,plasma concentration,[3]; 28 day,<0.4 ng/mL and 0.451 ng/mL and 1.36 ng/mL and 0.773 ng/mL
same,plasma concentration,[3]; 35 day,<0.4 ng/mL and 0.403 ng/mL and 2.11 ng/mL and 0.881 ng/mL
same,concentration at 7 day,[3]; [5],< 0.4 ng/mL
same,concentration at 14 day,[3]; [6],< 0.4 ng/mL
same,plasma concentration,[4]; 3 hour,2.12 ng/mL and 1.40 ng/mL and 2.42 ng/mL and 1.02 ng/mL
same,plasma concentration,[4]; 1 day,0.797 ng/mL and 0.522 ng/mL and 0.939 ng/mL and <0.4 ng/mL
same,plasma concentration,[4]; 3 day,<0.4 ng/ml (2×) and 0.521 ng/ml
same,plasma concentration,[4]; 7 day,<0.4 ng/ml (2×) and 0.405 ng/ml
same,plasma concentration,[4]; 14 day,<0.4 ng/mL and 0.478 ng/mL and 0.664 ng/mL
same,plasma concentration,[4]; 28 day,2.13 ng/mL and 0.539 ng/mL and 1.13 ng/mL and 2.19 ng/mL
same,plasma concentration,[4]; 35 day,2.17 ng/mL and 0.744 ng/mL and 1.48 ng/mL and 2.48 ng/mL
same,concentration at 3 day,"[4]; male, Sprague-Dawley, plasma, 3 day",0.485 ng/mL
same,concentration at 7 day,"[4]; male, Sprague-Dawley, plasma, 7 day",< 0.4 ng/mL
same,concentration at 14 day,"[4]; male, Sprague-Dawley, plasma, 14 day",0.6 ng/mL
